From patent US20140161729A1, “COFLUORONS AND METHODS OF MAKING AND USING THEM” (CORNELL UNIVERSITY, priority 2011, published 2014)

Experiments:
[1] = Fluorescence measurements of cofluoron models (linker element monomers and their multimers with boronic acids); format: physicochemical; settings: for fluorescence change on addition to linker element SL1 (2-hydroxy-3-naphthalenecarboxamide) / fluorescence change on addition to linker element SL3 (gallic acid ethanolamide): boronic acid 300 μM; for fluorescence change on addition to linker element SL1 (2-hydroxy-3-naphthalenecarboxamide): SL1 100 μM, FIG. 6A; for fluorescence change on addition to linker element SL3 (gallic acid ethanolamide): SL3 100 μM, FIG. 6B
[2] = test system: human mast cell line; test: Intracellular fluorescence of cofluorons (microscopy under UV excitation); format: cell-based; settings: 100 μM (each) cofluoron monomer
Method: Human mast cell β2-tryptase containing cells, grown in standard media, were incubated with 100 μM monomer 1 for 15 minutes at room temperature, followed by the addition of 100 μM monomer 2. Stock concentrations of cofluorons, 50 mM in DMSO, were diluted in media immediately before use. For localization studies, 10.5% PEG and 0.0005% berberine were added to costain mast cell granules. Fluorescent signals were detected using an inverted CKX41 Olympus microscope under UV excitation and an 100× oil immersion lens. Images were recorded using an Olympus DP20 digital camera.

[3] = Fluorescence measurements of cofluoron monomers and multimers without target; format: physicochemical; settings: for maximum fluorescence emission / wavelength of maximum emission: 100 μM (each), 0.1M phosphate pH 7.4, 100 μM EDTA, excited at 300 nM
Method: The fluorescence properties of cofluorons were measured in 0.1M HEPES or 0.1M phosphate buffer at pH 7.4 in 96- or 384-well black plates using a Molecular Dynamics SpectraMax M5 plate reader. Cofluoron samples were excited at discrete wavelengths and the fluorescence emission was scanned across a range of wavelengths (between 400 and 750 nm). The fluorescence properties of individual cofluoron monomers, as well as the fluorescent properties of cofluoron multimers formed by association of different combinations of cofluoron monomers, were tested and compared.
Fluorescence emission spectra were recorded for cofluoron monomers T147 and T27F individually at a concentration of 100 μM as well as in combination where each cofluoron monomer was at a concentration of 100 μM, in a 0.1M phosphate buffer at pH 7.4 containing 100 μM EDTA. The samples were excited at 300 nM and fluorescence emissions were measured between 300-750 nm on a Spectramax M5 spectrofluorometer. […] The fluorescence emission was enhanced to 4062 RFU and the emission wavelength shifted to 420 nm when the two cofluoron monomers were combined (See FIG. 19).
FIGS. 21 through 34 show the results of fluorescent measurements on the monomers T27 or T27F containing a dihydroxy moiety and multimers formed by mixing the dihydroxy compound with various monomer binding partners containing a boronic acid. These multimers have increased affinity for human mast cell β2-tryptase as compared to the monomers. The fluorescence properties of cofluorons were measured 0.1M phosphate buffer at pH 7.4 containing either 100 or 200 μM EDTA, in 96- or 384-well black plates using a Molecular Dynamics SpectraMax M5 plate reader. Cofluoron samples were excited at discrete wavelengths and the fluorescence emission was scanned across a range of wavelengths (between 400 and 750 nm).

[4] = target: Tryptase (Homo sapiens, UniProt P20231); test: Fluorescence of cofluoron pairs in the presence or absence of Tryptase; format: binding; settings: phosphate buffer pH 7.4, 200 mM NaCl, excited at 360 nm
Method: The fluorescence emission measurements on cofluorons binding to the target tryptase were measured in 0.1M HEPES or 0.1M phosphate buffer at pH 7.4 in 96- or 384-well black plates using a Molecular Dynamics SpectraMax M5 plate reader. Cofluoron samples were excited at discrete wavelengths and the fluorescence emission was scanned across a range of wavelengths (between 400 and 750 nm). The fluorescence properties of cofluoron monomers and cofluoron multimers in the presence of 3 μM tryptase as well as in the absence of tryptase were measured and compared.
To test whether the cofluorons retained their fluorescence when binding to the target Tryptase, fluorescence were measured on the cofluoron multimers formed by mixing 6 μM T43 with 6 μM T34, T11, T35, and T37, respectively, in the presence or absence of 5 μM Tryptase, in aqueous 50 μM phosphate buffer (pH 7.4) containing 200 mM NaCl. Excitation was at 360 nm, and the portion of emission containing meaningful signal is between 400 nm and 550 nm.

[5] = target: human mast cell β2-tryptase (Homo sapiens, UniProt P20231); test: Binding of cofluoron monomers and dimers to tryptase (IC50, affinity); settings: 1:1 combination with T27 or T27F
[6] = 100 μM 2-hydroxy-3-naphthalenecarboxamide + 300 μM boronic acid, 0.1M phosphate pH 7.4, 50% DMSO, excited at 350 nm

Tryptase, sequence (P20231 31-275): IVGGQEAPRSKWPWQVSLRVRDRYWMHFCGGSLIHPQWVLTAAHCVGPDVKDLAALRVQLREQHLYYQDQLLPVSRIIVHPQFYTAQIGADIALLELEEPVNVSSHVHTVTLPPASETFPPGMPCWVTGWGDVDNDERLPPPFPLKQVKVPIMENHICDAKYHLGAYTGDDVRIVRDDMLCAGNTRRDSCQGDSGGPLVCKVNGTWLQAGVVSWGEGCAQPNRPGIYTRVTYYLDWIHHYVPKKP
human mast cell β2-tryptase, sequence (P20231 31-275): as above

**Q.** With `CN(C)c1ccc(B(O)O)cn1` [2-(N,N-dimethylamino)pyridine-5-boronic acid] as the compound, how does the “increase in fluorescence emission intensity of 7,8-dihydroxy-4-methylcoumarin on forming oligomer with boronic acid partner” value ([1]; 100 μM 7,8-dihydroxy-4-methylcoumarin + 300 μM boronic acid, 0.1M phosphate pH 7.4, 50% DMSO, excitation 350 nm, emission 520 nm) read?
**A.** did not provide any enhanced signal

**Q.** With `OCc1ccccc1B(O)O` [2-(hydroxymethyl)phenylboronic acid] as the compound, how does the “enhancement of fluorescent emission signals at 460 nm over monomer methyl 3,4,5-trihydroxybenzoate” value ([1]; 100 μM methyl 3,4,5-trihydroxybenzoate + 300 μM boronic acid, 0.1M phosphate pH 7.4, 50% DMSO, excited at 350 nm) read?
**A.** about 7 fold

**Q.** For `OB(O)c1ccccc1F` [2-fluorophenylboronic acid], which “fluorescent emission intensity at 390 nm, fold higher than 3,4,5-trihydroxybenzamide alone” value ([1]; multimer with 3,4,5-trihydroxybenzamide, 100 μM each, 0.1M HEPES pH 7.9, 50% DMSO, excited at 340 nm) is on record?
**A.** 10 fold

**Q.** Which “enhancement of fluorescent emission signal at 420 nm over monomer 2-hydroxy-3-naphthalenecarboxamide” value [1, 6] does the source give for `OB(O)c1cccnc1F` [2-fluoropyridine-3-boronic acid] here?
**A.** more than 80 fold

**Q.** What does the source list for `NC(=O)c1cc2ccccc2cc1O` [2-hydroxy-3-naphthalenecarboxamide, 2-Hydroxy-3-naphthalenecarboxamide]?
**A.** fluorescent emission maximum ([1]; 2-hydroxy-3-naphthalenecarboxamide 100 μM, alone or with 300 μM boronic acids, 0.1M phosphate pH 7.4, 50% DMSO, excited at 350 nm): 500 nm; fluorescent emission maximum ([1]; 2-hydroxy-3-naphthalenecarboxamide alone or with boronic acids, phosphate pH 7.4, absence of DMSO, excited at 350 nm): about 510 nm

**Q.** Which “fluorescence change on addition to linker element SL1 (2-hydroxy-3-naphthalenecarboxamide)” value [1] does the source give for `OB(O)c1cccnc1F` [2b, 2-fluoropyridine-3-boronic acid] here?
**A.** stronger fluorescent signal, as well as a fluorescent emission wavelength shift to a lower wavelength

**Q.** And the “fluorescence change on addition to linker element SL3 (gallic acid ethanolamide)” value (shortened to “fluorescence change … (gallic acid ethanolamide)”) [1]?
**A.** stronger fluorescent signal, as well as a fluorescent emission wavelength shift to a higher wavelength

**Q.** With `OB(O)c1cc(F)cc(F)c1` [2c, 3,5-difluorophenylboronic acid] as the compound, how does the “fluorescence change on addition to linker element SL1 (2-hydroxy-3-naphthalenecarboxamide)” value [1] read?
**A.** stronger fluorescent signal, as well as a fluorescent emission wavelength shift to a lower wavelength

**Q.** And the “fluorescence change … (gallic acid ethanolamide)” value [1]?
**A.** stronger fluorescent signal, as well as a fluorescent emission wavelength shift to a higher wavelength

**Q.** Which “fluorescence change on addition to linker element SL1 (2-hydroxy-3-naphthalenecarboxamide)” value [1] does the source give for `OB(O)c1cc2ccccc2o1` [2d, benzofuran-2-boronic acid] here?
**A.** stronger fluorescent signal, as well as a fluorescent emission wavelength shift to a lower wavelength

**Q.** What about the “fluorescence change … (gallic acid ethanolamide)” value [1] of the same compound?
**A.** stronger fluorescent signal, as well as a fluorescent emission wavelength shift to a higher wavelength

**Q.** With `OB(O)c1cc(F)cc(F)c1` [3,5-difluorophenylboronic acid] as the compound, how does the “enhancement of fluorescent emission signal at 420 nm over monomer 2-hydroxy-3-naphthalenecarboxamide” value [1, 6] read?
**A.** about 40 fold

**Q.** What about the “fluorescent signal enhancement of multimer with 2-hydroxy-3-naphthalenecarboxamide” value ([1]; 100 μM 2-hydroxy-3-naphthalenecarboxamide + 300 μM boronic acid, phosphate pH 7.4, absence of DMSO, excited at 350 nm) of the same compound?
**A.** 30 fold

**Q.** With `Cl.NCc1cccc(C2CCN(C(=O)/C=C/c3ccc(O)c(O)c3)CC2)c1` [T24, (E)-1-(4-(3-(aminomethyl)phenyl)piperidin-1-yl)-3-(3,4-dihydroxyphenyl)prop-2-en-1-one hydrochloride] as the compound, how does the “fluorescent staining of cells” value [2] read?
**A.** somewhat brighter staining

**Q.** With `NCc1ccc(F)c(C2CCN(C(=O)c3cccc4cc(O)c(O)cc34)CC2)c1` [T27F] as the compound, how does the maximum fluorescence emission [3] read?
**A.** 380 RFU

**Q.** And the “wavelength of maximum emission” value [3]?
**A.** 520 nm

**Q.** With `NCc1cccc(C2CCN(C(=O)/C=C/c3cccc(B(O)O)c3)CC2)c1` [T34] as the compound, how does the “fluorescent signal of dimer with T43 in the absence of tryptase” value ([4]; 6 μM each) read?
**A.** hardly any fluorescent signal

**Q.** What about the “fluorescent signal enhancement in the presence of tryptase versus in the absence of tryptase” value ([4]; pair with T43, 6 μM each, 5 μM Tryptase) of the same compound?
**A.** 3 fold

**Q.** Which “fluorescent signal enhancement of multimer formed with T43, among all multimers tested” value ([3]; 100 μM T43 + 100 μM partner, 0.1M phosphate pH 7.4 aqueous, excited at 360 nm) does the source give for `NCc1cccc(C2CCN(C(=O)c3cccc4sc(B(O)O)cc34)CC2)c1` [T37] here?
**A.** strongest fluorescent signal enhancements

**Q.** With `NCc1cccc(C2CCN(C(=O)/C=C/c3cc(O)c(O)c(O)c3)CC2)c1` [T43] as the compound, how does the emission peak ([3]; T43 100 μM, alone or with 100 μM boronic acid partners, 0.1M phosphate pH 7.4 aqueous, excited at 360 nm) read?
**A.** 440 nm

**Q.** And the “fluorescent signal between 400 nm and 550 nm, monomer without boronic acid partner” value ([4]; 6 μM)?
**A.** essentially no fluorescent signal

**Q.** For `CN(Cc1ccccc1B(O)O)c1ccc(C(=O)N2CCC(c3cccc(CN)c3)CC2)cc1` [T147, (2-(((4-(4-(3-(aminomethyl)phenyl)piperidine-1-carbonyl)phenyl)(methyl)amino)methyl)phenyl)boronic acid], which maximum fluorescence emission [3] is on record?
**A.** 194 RFU

**Q.** What about the “wavelength of maximum emission” value [3] of the same compound?
**A.** 390 nm

**Q.** What about the “affinity to human β-tryptase of dimer versus monomers” value [5] of the same compound?
**A.** higher affinity to human β-tryptase than either monomer

**Q.** With `OB(O)c1cc2ccccc2o1` [benzofuran-2-boronic acid] as the compound, how does the “enhancement of fluorescent emission signal at 420 nm over monomer 2-hydroxy-3-naphthalenecarboxamide” value [1, 6] read?
**A.** about 40 fold

**Q.** Which fluorescent emission peak ([1]; methyl 3,4,5-trihydroxybenzoate 100 μM, alone or with 300 μM boronic acids, 0.1M phosphate pH 7.4, 50% DMSO, excited at 350 nm) does the source give for `COC(=O)c1cc(O)c(O)c(O)c1` [methyl 3,4,5-trihydroxybenzoate] here?
**A.** about 390 nm
